This is an account of results in PubChem BioAssay (NCI).

Some test systems named below: EKVX NSCLC; SK-OV-3 ovarian; SN12C renal; SF-295 CNS; CCRF-CEM leukemia; HOP-62 NSCLC; CAKI-1 renal; A498 renal; TK-10 renal.
What all share (assay): NCI anticancer screen, dose series, 48 h

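Results reflect a 48-hour exposure of cells in 96-well plates to compound at five concentrations. Definition used: TGI = concentration required for complete inhibition of growth.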

For the compound `Cc1ccc(C2CC(c3ccc([N+](=O)[O-])cc3)=Nc3ccccc3S2)cc1` (configuration not stated), the TGI is > 100 µM with EKVX NSCLC; > 100 µM in the test with SK-OV-3 ovarian; > 100 µM in the test with SN12C renal; > 100 µM in the test on SF-295 CNS; 34.2 µM in the test with CCRF-CEM leukemia; > 100 µM with HOP-62 NSCLC. In addition, the results for the TGI in the test on CAKI-1 renal, in the test on A498 renal and in the test with TK-10 renal were > 100 µM, 77.1 µM and > 100 µM, respectively.

Take `CCC1=C(C)/C(=C/c2[nH]c(C(Br)Br)c(CC)c2C)N=C1C(Br)Br`: the TGI in the test with EKVX NSCLC was > 100 µM; in the test on SK-OV-3 ovarian, > 100 µM; with SN12C renal, > 100 µM; in the test with SF-295 CNS it was 98.2 µM; in the test with CCRF-CEM leukemia it was 55.3 µM; in the test on HOP-62 NSCLC it was > 100 µM. In addition, the TGI in the test on TK-10 renal was > 100 µM.

For the compound `O=C(O)C1CCc2nnc(-c3ccccc3)n21` (configuration not stated), the TGI with EKVX NSCLC, with SK-OV-3 ovarian, in the test on SN12C renal, in the test on CCRF-CEM leukemia, in the test on HOP-62 NSCLC and with CAKI-1 renal was > 100 µM each time. Besides, the TGI in the test with A498 renal and in the test with TK-10 renal was > 100 µM throughout.

On to `COc1c(C2=NC(C(C)C)CO2)ccc2ccccc12` (configuration not stated), for which the TGI with EKVX NSCLC, with SK-OV-3 ovarian, with SN12C renal, in the test with SF-295 CNS, in the test on CCRF-CEM leukemia and in the test on HOP-62 NSCLC was > 100 µM throughout. Besides, the TGI with CAKI-1 renal, with A498 renal and in the test with TK-10 renal was > 100 µM each time.

For `O=C1c2ccccc2C(=O)C2C1C1C(=O)c3ccccc3C(=O)C21` (configuration not stated), the TGI in the test with EKVX NSCLC, in the test with SK-OV-3 ovarian, in the test with SN12C renal, in the test on SF-295 CNS, in the test with CCRF-CEM leukemia and with HOP-62 NSCLC was > 100 µM each time. Also, the TGI in the test on CAKI-1 renal and in the test on TK-10 renal was > 100 µM throughout.

As to `CC1(C)C(c2ccccc2)C12CCC1(C2=O)C(c2ccccc2)C1(C)C` (configuration not stated), the TGI in the test with EKVX NSCLC stood at 69.3 µM; in the test with SN12C renal, 73 µM; with SF-295 CNS, 47.2 µM; in the test on CCRF-CEM leukemia, 36.5 µM; with HOP-62 NSCLC, 60.5 µM; in the test with CAKI-1 renal, 60.3 µM. Further, the results for the TGI in the test on A498 renal and in the test with TK-10 renal were 90.7 µM and > 100 µM, respectively.

For the compound `Cc1c(C(=O)CC(=O)C(=O)Nc2c(C(C)C)cccc2C(C)C)[n+](=O)c2ccccc2n1[O-]`, the TGI in the test on EKVX NSCLC came out at 29 µM; with SK-OV-3 ovarian it was 40.1 µM; in the test with SN12C renal, 12.2 µM; in the test with SF-295 CNS it was 29.1 µM; with CCRF-CEM leukemia it was 7.84 µM; in the test on HOP-62 NSCLC, 59.3 µM. The results for the TGI with CAKI-1 renal, in the test on A498 renal and in the test with TK-10 renal were 43 µM, 49.6 µM and 60.2 µM, respectively.

For the compound `O=S1CSCS1` (configuration not stated), the TGI in the test on EKVX NSCLC, in the test on SK-OV-3 ovarian, in the test on SN12C renal, in the test with SF-295 CNS, in the test on CCRF-CEM leukemia and in the test on HOP-62 NSCLC was > 100 µM throughout. In addition, the TGI in the test with CAKI-1 renal, in the test on A498 renal and with TK-10 renal was > 100 µM in each case.

For the compound `CCOC(=O)c1cc(/C=C/C(C)=C/C(=O)OC)oc1-c1ccccc1`, the TGI with EKVX NSCLC, with SK-OV-3 ovarian, with SN12C renal, in the test on SF-295 CNS, with CCRF-CEM leukemia and with CAKI-1 renal was > 100 µM each time. Besides, the TGI with A498 renal and with TK-10 renal was > 100 µM throughout.

Regarding `O=C(c1ccccc1)C(c1ccccc1)C1(O)C(=O)Nc2ccccc21` (configuration not stated), the TGI in the test with EKVX NSCLC, in the test on SK-OV-3 ovarian, in the test on SN12C renal, with SF-295 CNS, in the test with CCRF-CEM leukemia and in the test on HOP-62 NSCLC was > 100 µM throughout. The TGI in the test with CAKI-1 renal, in the test on A498 renal and in the test on TK-10 renal was > 100 µM in each case.

As to `CCCN(CCCN)/[N+]([O-])=N\O`, the TGI was 0.921 µM in the test on EKVX NSCLC; > 100 µM in the test with SK-OV-3 ovarian; > 100 µM in the test on SN12C renal; > 100 µM in the test with SF-295 CNS; > 100 µM in the test on CCRF-CEM leukemia; > 100 µM in the test on HOP-62 NSCLC. In the test on CAKI-1 renal, the TGI is > 100 µM.

As for `Cc1nc2ccccc2c(=O)n1/N=C(\N=Nc1cc(Cl)ccc1Cl)c1cccc(-c2ccco2)c1`, the TGI in the test on EKVX NSCLC was > 100 µM; in the test on SK-OV-3 ovarian it was > 100 µM; with SN12C renal, > 100 µM; in the test on SF-295 CNS, > 100 µM; in the test with CCRF-CEM leukemia, > 10 µM; in the test with HOP-62 NSCLC it was > 100 µM. The TGI with CAKI-1 renal, with A498 renal and in the test on TK-10 renal was > 100 µM each time.

Turning to `COc1cc(=O)oc(/C=C/C=O)c1C`, the TGI stood at 94.6 µM with EKVX NSCLC; 75.9 µM in the test on SK-OV-3 ovarian; 20.7 µM with SN12C renal; 30.3 µM in the test on SF-295 CNS; 88.3 µM with CCRF-CEM leukemia; 34.9 µM with HOP-62 NSCLC. The TGI with CAKI-1 renal was 79.9 µM; with A498 renal, > 100 µM; in the test on TK-10 renal, 76.2 µM.

Turning to `COc1ccc(C2=Nc3ccccc3SC(C)C2)cc1` (configuration not stated), the TGI in the test on EKVX NSCLC, in the test with SK-OV-3 ovarian, in the test with SN12C renal, in the test with SF-295 CNS, in the test with CCRF-CEM leukemia and in the test on HOP-62 NSCLC was > 100 µM in each case. For the same compound, the TGI with CAKI-1 renal, in the test with A498 renal and with TK-10 renal was > 100 µM throughout.

As to `CC(C)(C)N/N=C(\Cc1occc(=O)c1O)C(=O)Nc1ccc([N+](=O)[O-])cc1[N+](=O)[O-]`, the TGI in the test with EKVX NSCLC, in the test with SK-OV-3 ovarian, with SN12C renal, in the test with SF-295 CNS, in the test with CCRF-CEM leukemia and in the test on HOP-62 NSCLC was > 100 µM in each case. Besides, the TGI in the test on CAKI-1 renal, in the test with A498 renal and with TK-10 renal was > 100 µM each time.
